Converted amounts (≈) assume the structure as drawn. Where two headings read alike, the source gives them in different places.
Key:
[1] = biological target: Norepinephrine transporter (Homo sapiens, UniProt P23975); assay: Off‐target panel: Norepinephrine transporter (DRX); assay type: cell-based
Experimental: (§1) GSK716 selectivity and PK properties were profiled in order to investigate the suitability of GSK716 for progression into in vivo studies and the potential for taking it forward as a clinical candidate for testing in humans. Since GSK716 results in loss of inhibitory activity of α1‐antitrypsin, the effect of the compound was assessed on other closely related serpins. […] Furthermore, there were no off‐target effects in a panel of assays considered predictive of known safety liabilities that precluded further development of GSK716 (Table EV1).

Serotonin 5HT2A = Serotonin 5HT2A (Homo sapiens, UniProt P28223); assay: Off‐target panel: Serotonin 5HT2A (DRX); assay type: cell-based
Experimental: as §1

[2] = test system: Z α1‐antitrypsin polymers in iPSC‐derived human hepatocytes (ZZ genotype); assay: Z α1‐antitrypsin polymerisation in ZZ iPSC‐derived human hepatocytes; assay type: cell-based; details: Hepatocyte, n = 16, read-out: mean pIC50, polymerisation (converted)
[3] = Total and unbound drug concentrations in blood and liver of Z α1‐antitrypsin transgenic mice; assay type: in vivo; details: for concentration at 123 h / concentration at 128 h / concentration at 339 h / concentration at 483 h: female, mouse, oral
Experimental: GSK716 was evaluated in a transgenic mouse model with an engineered random insertion of the human Z α1‐antitrypsin gene (Teckman et al, 2004). […] Further, older mice have larger α1‐antitrypsin inclusions that may be more difficult to reverse and any changes would be more difficult to detect than in younger animals. The PK‐PD relationship of GSK716 was explored by dosing Z α1‐antitrypsin transgenic animals with 10, 30 or 100 mg/kg GSK716 three times a day. […] Blood was also harvested for the measurement of monomeric Z α1‐antitrypsin in plasma. Total concentrations of GSK716 were determined by LC‐MS/MS, and the free drug in both tissues was determined using equilibrium dialysis to determine free fraction in the samples, subsequently used to derive unbound concentrations. […] Both free and total drug concentrations of GSK716 at the targeted site of action in the liver were equivalent to those in blood (Table 2).
Male CD‐1 mice, Han Wistar rats or beagle dogs were administered GSK716 as a suspension in 1% w/v aqueous methylcellulose via oral gavage at doses of 1 mg/kg (dog) or 10, 30 and 100 mg/kg (mouse, rat). Blood samples were taken into EDTA, diluted and mixed with acetonitrile containing internal standard (alprazolam) and centrifuged to precipitate proteins. Aliquots of the resultant supernatant were analysed by LC‐MS/MS, and concentrations of GSK716 in blood were determined. Non‐compartmental pharmacokinetic analysis (NCA) was carried out using Phoenix WinNonLin 6.3 (Certara L.P.). Free drug was measured in Z α1‐antitrypsin transgenic mice by dialysing tissue samples in rapid equilibrium dialysis cassettes.
Hemizygous female Z α1‐antitrypsin transgenic mice were 13–15 weeks of age at start of study. Drugs were administered via oral gavage three times a day at 8‐h intervals at 10 ml/Kg as a suspension in aqueous methylcellulose containing 0.5% w/v Tween 80. In life, blood sampling was performed vial tail nick. Animals were housed in licensed, approved housing in the UK with appropriate enrichment. Animals were randomly assigned to groups using manual methods. Histopathology analysis was performed blind.

Solubility in FaSSIF = assay type: physicochemical; details: amorphous, read-out: solubility of amorphous drug substance in FaSSIF
M α1‐antitrypsin = biological target: T1, M α1‐antitrypsin (Homo sapiens, UniProt P01009); assay: Stoichiometry of inhibition against chymotrypsin, M α1‐antitrypsin; assay type: biochemical; details: M α1‐antitrypsin pre‐incubated with GSK716 (50µM), read-out: loss of protease inhibitory activity
T1 construct: purified from the plasma of M (wild‐type) and Z α1‐antitrypsin homozygotes; from tissue; host or cells: human plasma of M (wild-type) homozygotes
Experimental: (§2) Mutations that interfere with the opening of β‐sheet A or that perturb its interaction with the N‐terminal portion of the reactive centre loop alter the ability of serpins to inhibit target proteases (Hood et al, 1994; Irving et al, 2014). The stoichiometry of inhibition (SI) was determined for M α1‐antitrypsin and Z α1‐antitrypsin in discontinuous experiments against a model target protease, chymotrypsin. The pre‐incubation of both variants with GSK716 led to a > 98% loss of protease inhibitory activity (Fig 5A).
(§3) Figure 5 The effect of GSK716 on serpin inhibitory activity • α1‐Antitrypsin was incubated at varying molar ratios with the model protease bovine α‐chymotrypsin, and the residual protease activity determined. […] The position of covalent α1‐antitrypsin‐chymotrypsin complex (cpx), native (nat) and cleaved (clv) is shown. • The inhibitory activity of α1‐antichymotrypsin against chymotrypsin (ach + chym), neuroserpin against trypsin (neus + tryp), and antithrombin against thrombin (atiii + thrombin) was determined in the presence and absence of GSK716. […]
(§4) The native state stability of α1‐antitrypsin on addition of compounds was investigated by thermal denaturation in the presence of a 5X concentration of SYPRO Orange dye solution (Life Technologies) (Nettleship et al, 2008). Resistance to heat‐induced polymerisation was determined using an end‐point constant‐temperature assay. […]

Z α1‐antitrypsin = Z α1‐antitrypsin (Homo sapiens, UniProt P01009, E366K); assay: Stoichiometry of inhibition against chymotrypsin, Z α1‐antitrypsin; assay type: biochemical; design: purified from the plasma of Z α1‐antitrypsin homozygotes; from tissue; host or cells: human plasma of Z α1-antitrypsin homozygotes; details: Z α1‐antitrypsin pre‐incubated with GSK716 (50µM), read-out: loss of protease inhibitory activity
Experimental: as §2, §3, §4

[4] = Z α1-antitrypsin transgenic (hemizygous), whole blood, 100 mg/kg, 100 mg/kg three times a day, read-out: TOTAL mean concentration ± SD, Blood
[5] = Z α1-antitrypsin transgenic (hemizygous), whole blood, 100 mg/kg, 100 mg/kg three times a day, read-out: UNBOUND mean concentration ± SD, Blood
[6] = hemizygous Z α1-antitrypsin transgenic, liver, 100 mg/kg three times a day, read-out: TOTAL mean concentration ± SD, Liver

Sequence of Serotonin 5HT2A (P28223 whole entry): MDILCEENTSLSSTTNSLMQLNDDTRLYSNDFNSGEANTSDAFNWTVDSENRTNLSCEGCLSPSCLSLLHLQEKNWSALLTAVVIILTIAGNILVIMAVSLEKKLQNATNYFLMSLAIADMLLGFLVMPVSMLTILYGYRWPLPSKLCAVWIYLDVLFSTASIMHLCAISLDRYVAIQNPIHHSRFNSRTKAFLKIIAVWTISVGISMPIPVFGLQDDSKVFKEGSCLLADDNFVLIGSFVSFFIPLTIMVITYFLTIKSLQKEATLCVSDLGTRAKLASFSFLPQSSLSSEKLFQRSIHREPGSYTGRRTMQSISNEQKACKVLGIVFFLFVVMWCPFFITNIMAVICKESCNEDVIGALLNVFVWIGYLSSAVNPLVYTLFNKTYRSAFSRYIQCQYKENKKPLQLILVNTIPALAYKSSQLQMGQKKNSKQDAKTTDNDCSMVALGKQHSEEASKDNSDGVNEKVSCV
T1 sequence (P01009 25-418): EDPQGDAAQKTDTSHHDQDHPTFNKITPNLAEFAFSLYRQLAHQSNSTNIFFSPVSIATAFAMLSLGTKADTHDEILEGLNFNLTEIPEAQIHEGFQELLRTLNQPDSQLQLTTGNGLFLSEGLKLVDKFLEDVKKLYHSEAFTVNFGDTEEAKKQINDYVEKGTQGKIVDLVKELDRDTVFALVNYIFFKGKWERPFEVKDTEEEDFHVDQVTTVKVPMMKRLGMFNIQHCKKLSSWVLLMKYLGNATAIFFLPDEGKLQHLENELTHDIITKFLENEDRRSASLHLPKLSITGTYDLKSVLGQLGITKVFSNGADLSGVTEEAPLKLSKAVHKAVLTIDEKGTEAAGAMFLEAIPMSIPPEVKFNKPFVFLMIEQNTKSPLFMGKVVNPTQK
Sequence of Norepinephrine transporter (P23975 whole entry, species assumed): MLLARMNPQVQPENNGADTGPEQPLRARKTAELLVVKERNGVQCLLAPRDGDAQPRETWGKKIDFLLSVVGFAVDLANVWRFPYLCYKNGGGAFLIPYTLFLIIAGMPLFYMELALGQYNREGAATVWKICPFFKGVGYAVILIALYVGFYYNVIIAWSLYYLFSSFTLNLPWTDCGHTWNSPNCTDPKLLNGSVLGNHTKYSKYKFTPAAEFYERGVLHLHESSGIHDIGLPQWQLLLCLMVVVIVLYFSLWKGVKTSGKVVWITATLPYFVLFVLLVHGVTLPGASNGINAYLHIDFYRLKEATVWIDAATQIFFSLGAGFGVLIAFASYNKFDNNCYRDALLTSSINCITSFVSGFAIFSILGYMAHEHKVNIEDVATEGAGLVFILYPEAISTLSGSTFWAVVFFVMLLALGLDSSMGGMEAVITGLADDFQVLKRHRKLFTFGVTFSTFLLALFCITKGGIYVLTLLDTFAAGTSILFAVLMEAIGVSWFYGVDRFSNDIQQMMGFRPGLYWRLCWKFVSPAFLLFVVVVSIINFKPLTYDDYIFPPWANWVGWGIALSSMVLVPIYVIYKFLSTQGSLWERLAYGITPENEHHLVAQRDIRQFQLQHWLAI
Sequence of Z α1‐antitrypsin (P01009 25-418 E366K): as the sequence (P01009 25-418) above, with E342K counted along it

For CCC[C@@H](NC(=O)c1cccc2c1CC(=O)N2)[C@@H](O)c1cccc(F)c1C [GSK716], the IC50 [1] was > 100 µM, the EC50 (Serotonin 5HT2A) was > 100 µM and the IC50 (Serotonin 5HT2A) was 63.1 µM. For the same molecule, the IC50 [2] was 0.398 µM, the “UNBOUND mean concentration ± SD, Liver” value ([3]; 30 mg/kg three times a day, time 128 h) was 0.075 (± 0.04 µM and the concentration at 123 h ([3]; Z α1-antitrypsin transgenic (hemizygous), liver, 10 mg/kg, 10 mg/kg three times a day, read-out: TOTAL mean concentration ± SD, Liver) was 3.5 µM. For the same molecule, the concentration at 123 h ([3]; Z α1-antitrypsin transgenic (hemizygous), liver, 10 mg/kg, 10 mg/kg three times a day, read-out: UNBOUND mean concentration ± SD, Liver) was 0.035 µM, the concentration at 128 h ([3]; Z α1-antitrypsin transgenic (hemizygous), liver, 10 mg/kg, 10 mg/kg three times a day, time 128 h, read-out: TOTAL mean concentration ± SD, Liver) was 2.1 µM and the concentration at 128 h ([3]; Z α1-antitrypsin transgenic (hemizygous), liver, 10 mg/kg, 10 mg/kg three times a day, time 128 h, read-out: UNBOUND mean concentration ± SD, Liver) was 0.028 µM. For the same molecule, the concentration at 123 h ([3]; Z α1-antitrypsin transgenic (hemizygous), liver, 30 mg/kg, 30 mg/kg three times a day, read-out: TOTAL mean concentration ± SD, Liver) was 6.7 µM, the concentration at 123 h ([3]; Z α1-antitrypsin transgenic (hemizygous), liver, 30 mg/kg, 30 mg/kg three times a day, read-out: UNBOUND mean concentration ± SD, Liver) was 0.091 µM and the concentration at 128 h ([3]; Z α1-antitrypsin transgenic (hemizygous), liver, 30 mg/kg, 30 mg/kg three times a day, time 128 h, read-out: TOTAL mean concentration ± SD, Liver) was 8.3 µM. The concentration at 123 h ([3]; Z α1-antitrypsin transgenic (hemizygous), liver, 100 mg/kg, 100 mg/kg three times a day, read-out: TOTAL mean concentration ± SD, Liver) was 40.9 µM, the concentration at 123 h ([3]; Z α1-antitrypsin transgenic (hemizygous), liver, 100 mg/kg, 100 mg/kg three times a day, read-out: UNBOUND mean concentration ± SD, Liver) was 1.05 µM and the concentration at 128 h ([3]; Z α1-antitrypsin transgenic (hemizygous), liver, 100 mg/kg, 100 mg/kg three times a day, time 128 h, read-out: TOTAL mean concentration ± SD, Liver) was 28.4 µM. For the same molecule, the concentration at 128 h ([3]; Z α1-antitrypsin transgenic (hemizygous), liver, 100 mg/kg, 100 mg/kg three times a day, time 128 h, read-out: UNBOUND mean concentration ± SD, Liver) was 0.679 µM, the concentration at 123 h ([3]; Z α1-antitrypsin transgenic (hemizygous), whole blood, 10 mg/kg, 10 mg/kg three times a day, read-out: TOTAL mean concentration ± SD, Blood) was 8.7 µM and the concentration at 123 h ([3]; Z α1-antitrypsin transgenic (hemizygous), whole blood, 10 mg/kg, 10 mg/kg three times a day, read-out: UNBOUND mean concentration ± SD, Blood) was 0.018 µM. The concentration at 128 h ([3]; Z α1-antitrypsin transgenic (hemizygous), whole blood, 10 mg/kg, 10 mg/kg three times a day, time 128 h, read-out: TOTAL mean concentration ± SD, Blood) was 7.7 µM, the concentration at 128 h ([3]; Z α1-antitrypsin transgenic (hemizygous), whole blood, 10 mg/kg, 10 mg/kg three times a day, time 128 h, read-out: UNBOUND mean concentration ± SD, Blood) was 0.009 µM and the concentration at 123 h ([3]; Z α1-antitrypsin transgenic (hemizygous), whole blood, 30 mg/kg, 30 mg/kg three times a day, read-out: TOTAL mean concentration ± SD, Blood) was 14 µM. The concentration at 123 h ([3]; Z α1-antitrypsin transgenic (hemizygous), whole blood, 30 mg/kg, 30 mg/kg three times a day, read-out: UNBOUND mean concentration ± SD, Blood) was 0.061 µM, the concentration at 128 h ([3]; Z α1-antitrypsin transgenic (hemizygous), whole blood, 30 mg/kg, 30 mg/kg three times a day, time 128 h, read-out: TOTAL mean concentration ± SD, Blood) was 13 µM and the concentration at 128 h ([3]; Z α1-antitrypsin transgenic (hemizygous), whole blood, 30 mg/kg, 30 mg/kg three times a day, time 128 h, read-out: UNBOUND mean concentration ± SD, Blood) was 0.051 µM. The concentration at 123 h [3, 4] was 33 µM, the concentration at 123 h [3, 5] was 0.49 µM and the concentration at 128 h ([3]; Z α1-antitrypsin transgenic (hemizygous), whole blood, 100 mg/kg, 100 mg/kg three times a day, time 128 h, read-out: TOTAL mean concentration ± SD, Blood) was 20 µM. It also gave a concentration at 128 h ([3]; Z α1-antitrypsin transgenic (hemizygous), whole blood, 100 mg/kg, 100 mg/kg three times a day, time 128 h, read-out: UNBOUND mean concentration ± SD, Blood) of 0.18 µM, a concentration at 339 h [3, 4] of 30 µM and a concentration at 339 h [3, 5] of 0.529 µM. For the same molecule, the concentration at 483 h ([3]; hemizygous Z α1-antitrypsin transgenic, blood, 100 mg/kg three times a day, read-out: TOTAL mean concentration ± SD, Blood) was 22 µM, the concentration at 483 h ([3]; hemizygous Z α1-antitrypsin transgenic, blood, 100 mg/kg three times a day, read-out: UNBOUND mean concentration ± SD, Blood) was 0.561 µM and the concentration at 339 h [3, 6] was 84.6 µM. The concentration at 483 h [3, 6] was 42.4 µM, the solubility (Solubility in FaSSIF) was 969 µg/mL (≈ 2620 µM) and the inhibition at 50 µM (M α1‐antitrypsin) was > 98%. For the same molecule, the inhibition at 50 µM (Z α1‐antitrypsin) was > 98%.

From PMC7933930, “Development of a small molecule that corrects misfolding and increases secretion of Z α1‐antitrypsin” (EMBO Molecular Medicine, 2021)
